Data published in publication PMC9090415, “Discovery of small molecule inhibitors of Plasmodium falciparum apicoplast DNA polymerase” (Journal of Enzyme Inhibition and Medicinal Chemistry, 2022).

Biological target: P. falciparum apicoplast DNA polymerase (Pf-apPOL) (Plasmodium falciparum, UniProt Q8ILY1)
Test: Fluorescence-based high-throughput DNA polymerase assay (molecular beacon), primary screen and dose-response
Type: biochemical
Method: The HT assay employs a molecular beacon, a stem-loop DNA template with a Cy3 dye and the Black Hole Quencher on the 3′ and 5′ ends of the DNA, respectively. Pf-apPOL concentration is based on a calculated absorptivity of ε280 = 56750 M^−1 cm^−1. Reactions were carried out at 25 °C, using Corning 3575 […] (well-volume, 20 µL). Assays testing for compound inhibition composed of reaction buffer (pH 7.9 in 50 mM potassium acetate, 20 mM Tris-acetate and 10 mM magnesium acetate), Pf-apPOL (20 nM), DNA substrate (20 nM), dNTPs (6 µM), and compound (10 µM in DMSO). The DNA and nucleotide substrates (dNTPs) were at concentrations of 20 nM and 6 µM, respectively, in the assay. Pf-apPOL was incubated in the reaction buffer with dNTPs and the compound of interest (10 µM, in the assay) at 25 °C for 10 min. The DNA substrate was then added and the reaction was allowed to proceed for 90 min at 25 °C.
Each assay plate contained 16 negative controls (no Pf-apPOL, DMSO present) and 16 positive controls (Pf-apPOL present, no DMSO). The fluorescence of each well was determined using a BioTek Synergy Neo fluorescence plate reader using excitation and emission wavelengths of 555 and 570 nm, respectively.
In the above, Min is the average of fluorescence emission of the negative controls (substrate only), Max the average fluorescence emission from the positive controls (enzyme + substrate), and Test the emission from the assays in the presence of compounds (enzyme + compound + substrates). […] […] The IC50 of each compound was determined using Equation (2): (2) IC50= Vmax/(1+ (I/IC50)^n)
In the above, n measures cooperativity, with n > 1 indicating synergistic binding of more than a single molecule of the compound.
To identify apPOL inhibitors we utilised our previously developed high-throughput DNA polymerase assay. The HT assay is based on a molecular beacon DNA template that forms a stem-loop with a Cy3 dye and the Black Hole Quencher on the 3′ and 5′ ends of the DNA, respectively. DNA polymerase activity extends an annealed primer through the stem region, displacing the fluorophore from the quencher, thereby increasing its fluorescence (Figure 1(A)). The assay accurately recapitulates the kinetic behaviour of apPOL, as measured through more conventional low-throughput gel-based assays. The Z′ factor for the assay described here was 0.9 across all plates (data not shown).
Figure 1. High-throughput screening. (A) The fluorescent-based DNA polymerase assay used to screen the compound libraries. The DNA template strand is a hairpin loop with a primer annealed to the loop. The 3’ end of the primer is 11 bases away from the 6 bp duplex. Strand displacement activity of the DNA polymerase separates the Cy3 dye from the Black hole quencher leading to an increase in fluorescent signal. (B) The high-throughput assay workflow. The DNA polymerase is incubated with […] compound for 10 min prior to addition of the hairpin substrate. The reaction is quenched at 3 different time points and the fluorescent signal is measured and % inhibition is determined using the provided equation.

[1] = supplemental file 2, sheet IC50 nontoxic compounds; Pf-apPOL

P. falciparum apicoplast DNA polymerase (Pf-apPOL), sequence (Q8ILY1 entry or part of it): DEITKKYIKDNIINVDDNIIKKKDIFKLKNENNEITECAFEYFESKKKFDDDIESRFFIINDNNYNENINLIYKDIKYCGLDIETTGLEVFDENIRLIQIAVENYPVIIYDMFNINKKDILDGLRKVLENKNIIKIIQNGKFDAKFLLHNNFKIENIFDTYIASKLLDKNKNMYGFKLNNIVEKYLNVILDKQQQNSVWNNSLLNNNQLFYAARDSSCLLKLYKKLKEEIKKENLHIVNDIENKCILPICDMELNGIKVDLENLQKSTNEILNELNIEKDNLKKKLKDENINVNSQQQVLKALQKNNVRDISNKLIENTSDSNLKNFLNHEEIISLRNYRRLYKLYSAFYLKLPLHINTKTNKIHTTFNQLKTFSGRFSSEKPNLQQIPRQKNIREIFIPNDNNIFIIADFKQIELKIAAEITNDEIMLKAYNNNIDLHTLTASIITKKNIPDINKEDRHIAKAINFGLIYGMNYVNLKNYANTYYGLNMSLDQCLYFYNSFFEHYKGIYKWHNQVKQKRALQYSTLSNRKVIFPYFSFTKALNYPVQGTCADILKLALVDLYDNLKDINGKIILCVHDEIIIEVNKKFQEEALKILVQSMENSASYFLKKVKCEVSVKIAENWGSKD

With `COc1ccc(C=C2Oc3c(ccc4c3CN(Cc3ccco3)CO4)C2=O)c(OC)c1` [KU0199404] the “% inhibition Apo pol 10'” value (DRC-1; concentration 2.5; 10') was 1.778%, the “% inhibition Apol 90'” value (DRC-1; concentration 2.5; 90') was 6.394% and the “% inhibition apPOL 180'” value (DRC-1; concentration 2.5; 180') was 14.4773%. The “% inhibition Apo pol 10'” value (DRC-1; concentration 5; 10') was 2.359%, the “% inhibition Apol 90'” value (DRC-1; concentration 5; 90') was 10.7843% and the “% inhibition apPOL 180'” value (DRC-1; concentration 5; 180') was 25.2477%. For the same compound, the “% inhibition Apo pol 10'” value (DRC-1; concentration 10; 10') was 17.8134%, the “% inhibition Apol 90'” value (DRC-1; concentration 10; 90') was 29.7292% and the “% inhibition apPOL 180'” value (DRC-1; concentration 10; 180') was 48.7066%. For the same compound, the “% inhibition Apo pol 10'” value (DRC-1; concentration 20; 10') was 37.7158%, the “% inhibition Apol 90'” value (DRC-1; concentration 20; 90') was 50.8732% and the “% inhibition apPOL 180'” value (DRC-1; concentration 20; 180') was 69.9557%. The “% inhibition Apo pol 10'” value (DRC-1; concentration 40; 10') was 58.5562%, the “% inhibition Apol 90'” value (DRC-1; concentration 40; 90') was 70.9348% and the “% inhibition apPOL 180'” value (DRC-1; concentration 40; 180') was 86.2262%. For the same compound, the “% inhibition Apo pol 10'” value (DRC-1; concentration 80 (unit not given); 10') was 73.935%, the “% inhibition Apol 90'” value (DRC-1; concentration 80; 90') was 78.9077% and the “% inhibition apPOL 180'” value (DRC-1; concentration 80; 180') was 90.2103%. For the same compound, the “% inhibition Apo pol 5'” value (DRC-2; 5'; concentration 10) was 33%, the “% inhibition Apo pol 5'” value (DRC-2; 5'; concentration 80) was 49% and the “% inhibition Apol 40'” value (DRC-2; 40'; concentration 10) was 33%. For the same compound, the “% inhibition Apol 40'” value (DRC-2; 40'; concentration 20) was 49%, the “% inhibition Apo pol 5'” value (DRC-2; concentration 2.5; 5') was 5% and the “% inhibition Apol 40'” value (DRC-2; concentration 2.5; 40') was 1.45%. For the same compound, the “% inhibition ApPOL 90'” value (DRC-2; concentration 2.5; 90') was -0.679%, the “% inhibition apPOL 180'” value (DRC-2; concentration 2.5; 180') was -6% and the “% inhibition Apo pol 5'” value (DRC-2; concentration 5; 5') was 12%. For the same compound, the “% inhibition Apol 40'” value (DRC-2; concentration 5; 40') was 3.41%, the “% inhibition ApPOL 90'” value (DRC-2; concentration 5; 90') was -6.4% and the “% inhibition apPOL 180'” value (DRC-2; concentration 5; 180') was -80%. The “% inhibition Apo pol 5'” value (DRC-2; concentration 10; 5') was 33%, the “% inhibition Apol 40'” value (DRC-2; concentration 10; 40') was 33% and the “% inhibition ApPOL 90'” value (DRC-2; concentration 10; 90') was 30%. For the same compound, the “% inhibition apPOL 180'” value (DRC-2; concentration 10; 180') was 17%, the “% inhibition Apo pol 5'” value (DRC-2; concentration 20; 5') was 46% and the “% inhibition Apol 40'” value (DRC-2; concentration 20; 40') was 49%. For the same compound, the “% inhibition ApPOL 90'” value (DRC-2; concentration 20; 90') was 45%, the “% inhibition apPOL 180'” value (DRC-2; concentration 20; 180') was 31% and the “% inhibition Apo pol 5'” value (DRC-2; concentration 40; 5') was 52%. The “% inhibition Apol 40'” value (DRC-2; concentration 40; 40') was 58%, the “% inhibition ApPOL 90'” value (DRC-2; concentration 40; 90') was 56% and the “% inhibition apPOL 180'” value (DRC-2; concentration 40; 180') was 47%. For the same compound, the “% inhibition Apo pol 5'” value (DRC-2; concentration 80; 5') was 49%, the “% inhibition Apol 40'” value (DRC-2; concentration 80; 40') was 51% and the “% inhibition ApPOL 90'” value (DRC-2; concentration 80; 90') was 48%. The “% inhibition apPOL 180'” value (DRC-2; concentration 80; 180') was 43%, the “DNA Pol” value (primary screen value of the 186 hits; unit not given; 90 min, 10 µM) was 29 and the “DNA Pol” value (primary screen value; head prints only 'DNA Pol'; 90 min, 10 µM) was 29.
`CCOc1ccc(/C=C2\N=C(c3cc([N+](=O)[O-])cc([N+](=O)[O-])c3)OC2=O)cc1` [Molecule 97, CCOc1ccc(cc1)/C=C/1\N=C(OC1=O)c1cc(cc(c1)N(=O)=O)N(=O)=O] was tested, and the “DNA Pol” value ('DNA Pol' of the 186 hits list (primary screen result); unit not given; 90 min, 10 µM) was 62, the “% inhibition Apo pol 10'” value (DRC-1; 10'; concentration 2.5) was 32.0109% and the “% inhibition Apo pol 10'” value (DRC-1; 10'; concentration 5) was 55.2757%. The “% inhibition Apo pol 10'” value (DRC-1; 10'; concentration 10) was 83.2599%, the “% inhibition Apo pol 10'” value (DRC-1; 10'; concentration 20) was 91.8438% and the “% inhibition Apo pol 10'” value (DRC-1; 10'; concentration 40) was 94.8761%. For the same compound, the “% inhibition Apo pol 10'” value (DRC-1; 10'; concentration 80) was 92.0577%, the “% inhibition Apol 90'” value (DRC-1; 90'; concentration 2.5) was 15.0386% and the “% inhibition Apol 90'” value (DRC-1; 90'; concentration 5) was 31.639%. The “% inhibition Apol 90'” value (DRC-1; 90'; concentration 10) was 61.0945%, the “% inhibition Apol 90'” value (DRC-1; 90'; concentration 20) was 80.2984% and the “% inhibition Apol 90'” value (DRC-1; 90'; concentration 40) was 94.8535%. For the same compound, the “% inhibition Apol 90'” value (DRC-1; 90'; concentration 80) was 94.5175%, the “% inhibition apPOL 180'” value (DRC-1; 180'; concentration 2.5) was 6.537% and the “% inhibition apPOL 180'” value (DRC-1; 180'; concentration 5) was 16.2109%. The “% inhibition apPOL 180'” value (DRC-1; 180'; concentration 10) was 41.6227%, the “% inhibition apPOL 180'” value (DRC-1; 180'; concentration 20) was 66.1189% and the “% inhibition apPOL 180'” value (DRC-1; 180'; concentration 40) was 93.496%. For the same compound, the “% inhibition apPOL 180'” value (DRC-1; 180'; concentration 80) was 95.7221%, the “% inhibition Apol 40'” value (DRC-2, 40', concentration 20 (unit not given)) was 68% and the “% inhibition Apol 40'” value (DRC-2, 40', concentration 40 (unit not given)) was 76%. For the same compound, the “% inhibition Apol 40'” value (DRC-2, 40', concentration 80 (unit not given)) was 76%, the “% inhibition ApPOL 90'” value (DRC-2, 90', concentration 20 (unit not given)) was 68% and the “% inhibition apPOL 180'” value (DRC-2, 180', concentration 20 (unit not given)) was 60%. The “% inhibition Apo pol 5'” value (DRC-2; 5'; concentration 2.5) was 20%, the “% inhibition Apo pol 5'” value (DRC-2; 5'; concentration 5) was 43% and the “% inhibition Apo pol 5'” value (DRC-2; 5'; concentration 10) was 52%. For the same compound, the “% inhibition Apo pol 5'” value (DRC-2; 5'; concentration 20) was 59%, the “% inhibition Apo pol 5'” value (DRC-2; 5'; concentration 40) was 61% and the “% inhibition Apo pol 5'” value (DRC-2; 5'; concentration 80) was 60%. The “% inhibition Apo pol 5'” value (DRC-2; 5'; concentration 80 (unit not given)) was 60%, the “% inhibition Apol 40'” value (DRC-2; 40'; concentration 2.5) was 14% and the “% inhibition Apol 40'” value (DRC-2; 40'; concentration 5) was 38%. For the same compound, the “% inhibition Apol 40'” value (DRC-2; 40'; concentration 10) was 47%, the “% inhibition Apol 40'” value (DRC-2; 40'; concentration 20) was 68% and the “% inhibition Apol 40'” value (DRC-2; 40'; concentration 40) was 76%. For the same compound, the “% inhibition Apol 40'” value (DRC-2; 40'; concentration 80) was 76%, the “% inhibition ApPOL 90'” value (DRC-2; 90'; concentration 2.5) was 9% and the “% inhibition ApPOL 90'” value (DRC-2; 90'; concentration 5) was 33%. For the same compound, the “% inhibition ApPOL 90'” value (DRC-2; 90'; concentration 10) was 42%, the “% inhibition ApPOL 90'” value (DRC-2; 90'; concentration 20) was 68% and the “% inhibition ApPOL 90'” value (DRC-2; 90'; concentration 40) was 79%. For the same compound, the “% inhibition ApPOL 90'” value (DRC-2; 90'; concentration 80) was 80%, the “% inhibition apPOL 180'” value (DRC-2; 180'; concentration 2.5) was 2.15% and the “% inhibition apPOL 180'” value (DRC-2; 180'; concentration 5) was 19%. The “% inhibition apPOL 180'” value (DRC-2; 180'; concentration 10) was 28%, the “% inhibition apPOL 180'” value (DRC-2; 180'; concentration 20) was 60% and the “% inhibition apPOL 180'” value (DRC-2; 180'; concentration 40) was 81%. For the same compound, the “% inhibition apPOL 180'” value (DRC-2; 180'; concentration 80) was 84% and the “DNA Pol” value (primary screen value of the library well; unit not given; 90 min, 10 µM) was 62.
`CCOc1ccccc1-c1nc(-c2ccc(=O)[nH]c2)no1` [Molecule 76] showed an IC50 [1] of 38.7 µM.
`CN1CC(=Cc2ccco2)C(=O)C(=Cc2ccco2)C1` [Molecule 65] showed an IC50 [1] of 7.51 µM.
